# Measured values as given in US20100120703A1, “COMPOSITIONS AND METHODS FOR TREATING CANCER” (priority 2007, published 2010).
# Tests used:
# [1] = tested on: WRL-68 cells; test: Neutral red cell viability assay; format: cell-based, human; conditions: SIN up to 1,000 μM, 72 hours
# Description: The neutral red (NR) cytotoxicity assay is a chemosensitivity assay for measuring cell survival/viability, based on the ability of viable cells to incorporate and bind neutral red, a supravital dye. NR is a weak cationic dye that readily penetrates cell membranes by non-ionic diffusion, accumulating intracellularly in lysosomes, where it binds with anionic sites in the lysosomal matrix. Alterations of the cell surface or the sensitive lysosomal membrane lead to lysosomal fragility and other changes that gradually become irreversible. Such changes brought about by the action of xenobiotics result in a decreased uptake and binding of NR. It is thus possible to distinguish between viable, damaged, or dead cells. (Babich, H et al, 1990)
# Three different cell lines HepG2, WRL-68 and Clone 9 cell lines were used in the experiment. HepG2 is a human hepatoblastoma cell line. It is a well known cell model in anti-HCC studies (Alshatwi A A, et al, 2006). WRL-68 is a human normal liver embryo cell line that has a morphologic structure similar to hepatocytes and hepatic primary cultures (Gutierrez-Ruiz, et al, 1994). This cell line was used as the control. Clone 9 is the rat Sprague Dawley (SD) liver normal cell line. […]
# HepG2, WRL-68 and Clone 9 cells were grown in complete culture medium (RPMI or DMEM), trypsinized and washed. […] The color was measured at OD540nm.
# [2] = tested on: p53, Mdm2, p21, PCNA, Bax and Bcl-2; test: Gene expression assay (RT-PCR, Western blot) in rat liver, promotion stage; format: in vivo
# Protocol: Expression patterns, at both mRNA and protein levels, of selected genes related to apoptosis and tumors were examined to investigate the mechanism by which sinigrin prevent tumor occurrence.
# RNA was extracted from 300 μg of rat liver and was measured as described in foregoing examples Three micrograms of total RNA, 1 μl of an oligo dT primer and certain volume of RNase-Free H2O were mixed into a total volume of 12 μl. The mixture was incubated at 70° C. for 10 minutes and immediately chilled on ice. Four microliters of 5× First Stand Buffer, 2 μl of 0.1M DTT, 1 μl of 10 mM dNTP mix, and 1 μl of SuperScript II were added to each tube and mixed. The tubes were incubated at 42° C. for 50 minutes followed by 70° C. for 15 minutes before chilling on ice. The cDNA was then ready for PCR amplification.
# The PCR reactions were performed in a final volume of 20 μl in a Gene Amp® PCR system. The PCR reaction mix contained 1 μl of cDNA synthesized previously, 2 μl 10×PCR Buffer, 0.4 μl 10 mM dNTP mix, 1.2 μl 25 mM MgCl2, 1 μl 10 mM primer mix, 0.2 μl recombinant Taq polymerase, and 14.2 μl autoclaved ddH2O.
# For synthesis of β-actin gene as the internal control and Mdm2 gene, the PCR mixture was incubated at 94° C. for 5 minutes followed by 30 cycles of amplification. Each cycle consisted of 45 seconds of denaturation at 94° C., 45 seconds of annealing at 55° C. and 30 seconds of extension at 72° C. After all cycles were completed, a final extension step at 72° C. for 10 minutes was performed. The PCR products were ready for gel electrophoresis.
# For synthesis of p53, the number of cycle was enhanced to 35, the annealing temperature was enhanced to 58° C., and the extension time was extended to 1.5 minutes, respectively.
# The intensity of the PCR products was analyzed by the software Image J. The band intensity of the β-actin gene was measured as an internal control. The ratio of the band intensities of the target gene to the β-actin gene was used to compare the mRNA level of each gene between different treatment groups.
# Three hundred micrograms of each liver sample were homogenized in the Solution C at 1 g/ml using a glass homogenizer on ice. The homogenate was transferred to a microcentrifuge tube and centrifuged at 13,000 rpm for 20 minutes. The supernatant was collected and equal volume of 2× sample loading dye was added to each sample. The samples were stored at −20° C. The protein was used for immunodetection of the expression level of Bax, Bcl-2, PCNA and p21.
# Three hundreds micrograms of each liver sample were homogenized in Solution A at 1 g/ml using the glass homogenizer on ice. The homogenate was transferred into a microcentrifuge tube and centrifuged at 3,000 rpm for 5 minutes to spin down the unbroken tissue. The supernatant was collected and incubated on ice for 5 minutes and then centrifuged at 5,000 rpm for 5 minutes. The supernatant was discarded and the pellet was lysed by 100 μl Solution B. The lysing process lasted for 20 minutes on ice. After incubation, the solution was centrifuged at 12,000 rpm for 15 seconds to spin down the cell debris. The supernatant was collected and equal volume of 2× sample loading dye was added to each sample. The samples were ready for immunodetection of the expression level of p53 and mdm2.
# The Mini-PROTEAN II electrophoresis cell (Bio-Rad) was used for sodium dodecyl sulfate poly acrylamide gel electrophoreses (SDS-PAGE). The gel mold was assembled according to the protocol. About 3 ml water was poured into the set mold to test for leakage. After discarding the water, resolving gel solution was prepared according to the established protocol. A 10% acrylamide gel was used for the separation. The resolving gel was poured into the mold at a proper volume (about ⅔ full). After the gel solution was poured into the mold, a thin layer of distilled water was poured on the gel solution to ensure the surface of the gel was smooth. The gel was allowed to polymerize for 30 minutes. […]
compound,measurement,setting,value
"C=CC/C(=N/OS(=O)(=O)[O-])S[C@@H]1OC(CO)[C@@H](O)C(O)C1O.[K+] (stereo partly shown) [SIN, sinigrin]",cell viability of WRL-68 cells (healthy liver cells),[1],no decrease in cell viability was observed
same,Mdm2 mRNA expression,[2]; RT-PCR,decreased back to levels near the negative control
same,p53 mRNA expression,[2]; RT-PCR,decreased back to levels near the negative control
same,Bax protein expression (decreased in positive group),[2]; Western blot,reversed
same,Bcl-2 protein expression (increased in positive group),[2]; Western blot,reversed
same,Mdm2 protein expression (increase in positive control),[2]; Western blot,partially reversed
same,PCNA protein expression (increased in positive group),[2]; Western blot,reversed
same,p21 protein expression,[2]; Western blot,much higher than that of the negative control and the positive control
same,total p53 protein level,[2]; Western blot,significantly increased
same,wild type p53 protein level,[2]; Western blot,restored its expression to a level even higher than the negative control
